According to US20110008465A1, “SESQUITERPENE FORMULATIONS, KITS AND METHODS OF USE THEREOF” (priority 2007, published 2011):
Where a name gives a salt, the structure may show the parent alone.

What was measured:
[1] = tested on: GL-261 (murine glioblastoma); test: Chou and Talalay combination assay with beta-caryophyllene; type: cell-based; conditions: anticancer drug in combination with beta-caryophyllene; Chou and Talalay CI; 48 h
Experimental: (§1) Each solution was prepared fresh and use within 1 hour after preparation.
(§2) Cells were then harvested using trypsine-EDTA. Cells were counted using a hemocytometer and resuspended in DMEM+10% FBS medium.
(§3) Proliferation assay: Increasing concentrations of the anticancer agents and/or beta-caryophyllene were added to 96-well plate (100 μL per well). The final concentration of solvent in the culture medium was maintained below 0.5% (volume/volume) to avoid solvent toxicity.
(§4) The cells were incubated for 48 h at 37° C. and 5% CO2. Cytotoxicity was assessed using the resazurin reduction test (O'Brien et al., 2000). Fluorescence was measured on an automated 96-well Fluoroskan Ascent FI™ plate reader (Labsystems) using excitation and emission wavelengths of 530 nm and 590 nm, respectively. Resazurin was then removed.
(§5) Microplates were frozen at −20° C. overnight. Plates were thawed, a volume of 100 μl of 0.01% SDS in water was added to the wells, the plates were shaken at room temperature for 3 hours and then frozen once more at −20° C. overnight. […] Plates were shaken in the dark (at room temperature) for at least 2 hours, and fluorescence was measured on an automated 96-well Fluoroskan Ascent FI™ plate reader (Labsystems) using excitation and emission wavelengths of 360 nm and 460 nm, respectively.
(§6) Results were analyzed using the Chou and Talalay method (9) and may be interpreted as follow: Cl>1 represents an antagonist effect of beta-caryophyllene with the corresponding anticancer agent; Cl=1 represents an additive effect of beta-caryophyllene with the corresponding anticancer agent; Cl<1 represents a potentiating effect of beta-caryophyllene with the corresponding anticancer agent.

[2] = tested on: MEL-2 (human melanoma); test: as above; type: cell-based; conditions: anticancer drug in combination with beta-caryophyllene; Chou and Talalay CI; 48 h
Experimental: as §1, §2, §3, §4, §5, §6

[3] = tested on: B16 (murine melanoma); test: as above; type: cell-based; conditions: anticancer drug in combination with beta-caryophyllene; Chou and Talalay CI; 48 h
Experimental: as §1, §2, §3, §4, §5, §6

[4] = tested on: U-251 (human glioblastoma); test: as above; type: cell-based; conditions: anticancer drug in combination with beta-caryophyllene; Chou and Talalay CI; 48 h
Experimental: as §1, §2, §3, §4, §5, §6

[5] = tested on: MDA-MB-231 (breast cancer); test: as above; type: cell-based, human; conditions: anticancer drug in combination with beta-caryophyllene; Chou and Talalay CI; 48 h
Experimental: as §1, §2, §3, §4, §5, §6

[6] = tested on: A-549 (lung cancer); test: as above; type: cell-based, human; conditions: anticancer drug in combination with beta-caryophyllene; Chou and Talalay CI; 48 h
Experimental: as §1, §2, §3, §4, §5, §6

[7] = tested on: MCF-7 (breast cancer); test: as above; type: cell-based, human; conditions: anticancer drug in combination with beta-caryophyllene; Chou and Talalay CI; 48 h
Experimental: as §1, §2, §3, §4, §5, §6

[8] = tested on: DLD-1 (colon cancer); test: as above; type: cell-based, human; conditions: anticancer drug in combination with beta-caryophyllene; Chou and Talalay CI; 48 h
Experimental: as §1, §2, §3, §4, §5, §6

[9] = tested on: PA-1 (ovary cancer); test: as above; type: cell-based, human; conditions: anticancer drug in combination with beta-caryophyllene; Chou and Talalay CI; 48 h
Experimental: as §1, §2, §3, §4, §5, §6

[10] = tested on: PC-3 (prostate cancer); test: as above; type: cell-based, human; conditions: anticancer drug in combination with beta-caryophyllene; Chou and Talalay CI; 48 h
Experimental: as §1, §2, §3, §4, §5

[11] = tested on: tumor cell lines; test: Comparative potentiating effect of beta-caryophyllene and Tesmilifene (DPPE) combined with 5 antitumor classes; type: cell-based
Experimental: as §1, §2, §3, §4, §5, §6

For `N.N.[Cl][Pt][Cl]` [Cisplatine, Cisplatin], the “Potentiating activity GL-261” value [1] was “(6) (Antagonist effect: CI > 1)”, the “Potentiating activity MEL-2” value [2] was “(1) (Very High: potentiating or additive activity to IC20 and CI < 0.6 to IC50)” and the “Potentiating activity B16” value [3] was “(1) (Very High: potentiating or additive activity to IC20 and CI < 0.6 to IC50)”. The “Potentiating activity U-251” value [4] was “(6) (Antagonist effect: CI > 1)”, the “Potentiating activity MDA” value [5] was “(3) (Moderate: 0.5 < CI < 0.8 at IC50)” and the “Potentiating activity A-549” value [6] was “(2) (High: CI below 0.5 at IC50)”. The “Potentiating activity MCF-7” value [7] was “(2) (High: CI below 0.5 at IC50)”, the “Potentiating activity DLD-1” value [8] was “(1) (Very High: CI equal or below 1 at IC20 and Cl below 0.6 to IC50)” and the “Potentiating activity PA-1” value [9] was “(2) (High: CI < 0.5 to IC50)”. For the same molecule, the “Potentiating activity PC-3” value [10] was “(6) (Antagonist effect: CI > 1)”.

With `CCN(CC)CCOc1ccc(Cc2ccccc2)cc1` [DPPE, Tesmilifene] the Alkylating agents % ([11]; class (1) Very High) was 25%, the “Alkylating agents Total (60)” value ([11]; class (1) Very High) was 15 and the Antimitotic agents % ([11]; class (1) Very High) was 25%. The “Antimitotic agents Total (40)” value ([11]; class (1) Very High) was 10, the RNA/DNA antimetabolites % ([11]; class (1) Very High) was 30% and the “RNA/DNA antimetabolites Total (20)” value ([11]; class (1) Very High) was 6. The “Topoisomerase II inhibitors %” value ([11]; class (1) Very High) was 18%, the “Topoisomerase II inhibitors Total (40)” value ([11]; class (1) Very High) was 7 and the kinase inhibitors % ([11]; class (1) Very High) was 30%. For the same molecule, the “kinase inhibitors Total (20)” value ([11]; class (1) Very High) was 6, the Alkylating agents % ([11]; class (2) High) was 20% and the “Alkylating agents Total (60)” value ([11]; class (2) High) was 12. The Antimitotic agents % ([11]; class (2) High) was 20%, the “Antimitotic agents Total (40)” value ([11]; class (2) High) was 8 and the RNA/DNA antimetabolites % ([11]; class (2) High) was 15%. For the same molecule, the “RNA/DNA antimetabolites Total (20)” value ([11]; class (2) High) was 3, the “Topoisomerase II inhibitors %” value ([11]; class (2) High) was 13% and the “Topoisomerase II inhibitors Total (40)” value ([11]; class (2) High) was 5. The kinase inhibitors % ([11]; class (2) High) was 25%, the “kinase inhibitors Total (20)” value ([11]; class (2) High) was 5 and the Alkylating agents % ([11]; class (3) Moderate) was 23%. The “Alkylating agents Total (60)” value ([11]; class (3) Moderate) was 14, the Antimitotic agents % ([11]; class (3) Moderate) was 30% and the “Antimitotic agents Total (40)” value ([11]; class (3) Moderate) was 12. For the same molecule, the RNA/DNA antimetabolites % ([11]; class (3) Moderate) was 15%, the “RNA/DNA antimetabolites Total (20)” value ([11]; class (3) Moderate) was 3 and the “Topoisomerase II inhibitors %” value ([11]; class (3) Moderate) was 30%. For the same molecule, the “Topoisomerase II inhibitors Total (40)” value ([11]; class (3) Moderate) was 12, the kinase inhibitors % ([11]; class (3) Moderate) was 45% and the “kinase inhibitors Total (20)” value ([11]; class (3) Moderate) was 9. The Alkylating agents % ([11]; class (4) Weak) was 10%, the “Alkylating agents Total (60)” value ([11]; class (4) Weak) was 6 and the Antimitotic agents % ([11]; class (4) Weak) was 15%. The “Antimitotic agents Total (40)” value ([11]; class (4) Weak) was 6, the RNA/DNA antimetabolites % ([11]; class (4) Weak) was 10% and the “RNA/DNA antimetabolites Total (20)” value ([11]; class (4) Weak) was 2. For the same molecule, the “Topoisomerase II inhibitors %” value ([11]; class (4) Weak) was 10%, the “Topoisomerase II inhibitors Total (40)” value ([11]; class (4) Weak) was 4 and the kinase inhibitors % ([11]; class (4) Weak) was 0%. The “kinase inhibitors Total (20)” value ([11]; class (4) Weak) was 0, the Alkylating agents % ([11]; class (5) Additive effect) was 5% and the “Alkylating agents Total (60)” value ([11]; class (5) Additive effect) was 3. For the same molecule, the Antimitotic agents % ([11]; class (5) Additive effect) was 0%, the “Antimitotic agents Total (40)” value ([11]; class (5) Additive effect) was 0 and the RNA/DNA antimetabolites % ([11]; class (5) Additive effect) was 0%. For the same molecule, the “RNA/DNA antimetabolites Total (20)” value ([11]; class (5) Additive effect) was 0, the “Topoisomerase II inhibitors %” value ([11]; class (5) Additive effect) was 5% and the “Topoisomerase II inhibitors Total (40)” value ([11]; class (5) Additive effect) was 2. For the same molecule, the kinase inhibitors % ([11]; class (5) Additive effect) was 0%, the “kinase inhibitors Total (20)” value ([11]; class (5) Additive effect) was 0 and the Alkylating agents % ([11]; class (6) Antagonist effect) was 17%. The “Alkylating agents Total (60)” value ([11]; class (6) Antagonist effect) was 10, the Antimitotic agents % ([11]; class (6) Antagonist effect) was 10% and the “Antimitotic agents Total (40)” value ([11]; class (6) Antagonist effect) was 4. The RNA/DNA antimetabolites % ([11]; class (6) Antagonist effect) was 30%, the “RNA/DNA antimetabolites Total (20)” value ([11]; class (6) Antagonist effect) was 6 and the “Topoisomerase II inhibitors %” value ([11]; class (6) Antagonist effect) was 25%. For the same molecule, the “Topoisomerase II inhibitors Total (40)” value ([11]; class (6) Antagonist effect) was 10, the kinase inhibitors % ([11]; class (6) Antagonist effect) was 0% and the “kinase inhibitors Total (20)” value ([11]; class (6) Antagonist effect) was 0. For the same molecule, the “drugs exhibiting a potentiating effect when combined” value ([11]; drugs tested at their IC50 values) was 81%.

For `CN(C)/N=N/c1[nH]cnc1C(N)=O` [Dacarbazine, dacarbazine], the “Potentiating activity GL-261” value [1] was “(2) (High: CI < 0.5 to IC50)”, the “Potentiating activity MEL-2” value [2] was “(1) (Very High: potentiating or additive activity to IC20 and CI < 0.6 to IC50)” and the “Potentiating activity B16” value [3] was “(1) (Very High: potentiating or additive activity to IC20 and CI < 0.6 to IC50)”. The “Potentiating activity U-251” value [4] was “(1) (Very High: potentiating or additive activity to IC20 and CI < 0.6 to IC50)”, the “Potentiating activity MDA” value [5] was “(1) (Very High: CI equal or below 1 at IC20 and Cl below 0.6 to IC50)” and the “Potentiating activity A-549” value [6] was “(2) (High: CI below 0.5 at IC50)”. For the same molecule, the “Potentiating activity MCF-7” value [7] was “(1) (Very High: CI equal or below 1 at IC20 and Cl below 0.6 to IC50)”, the “Potentiating activity DLD-1” value [8] was “(3) (Moderate: 0.5 < CI < 0.8 at IC50)” and the “Potentiating activity PA-1” value [9] was “(1) (Very High: potentiating or additive activity to IC20 and CI < 0.6 to IC50)”. For the same molecule, the “Potentiating activity PC-3” value [10] was “(4) (Weak: 0.8 < CI < 1 to IC50)”.

`COc1cccc2c1C(=O)c1c(O)c3c(c(O)c1C2=O)C[C@@](O)(C(=O)CO)C[C@@H]3O[C@H]1C[C@H](N)[C@H](O)[C@H](C)O1` [Doxorubicin, doxorubicin hydrochloride] was tested, and the “Potentiating activity GL-261” value [1] was “(3) (Moderate: 0.5 < CI < 0.8 to IC50)”, the “Potentiating activity MEL-2” value [2] was “(1) (Very High: potentiating or additive activity to IC20 and CI < 0.6 to IC50)” and the “Potentiating activity B16” value [3] was “(1) (Very High: potentiating or additive activity to IC20 and CI < 0.6 to IC50)”. The “Potentiating activity U-251” value [4] was “(1) (Very High: potentiating or additive activity to IC20 and CI < 0.6 to IC50)”, the “Potentiating activity MDA” value [5] was “(3) (Moderate: 0.5 < CI < 0.8 at IC50)” and the “Potentiating activity A-549” value [6] was “(2) (High: CI below 0.5 at IC50)”. The “Potentiating activity MCF-7” value [7] was “(1) (Very High: CI equal or below 1 at IC20 and Cl below 0.6 to IC50)”, the “Potentiating activity DLD-1” value [8] was “(4) (Weak: 0.8 < CI < 1 at IC50)” and the “Potentiating activity PA-1” value [9] was “(1) (Very High: potentiating or additive activity to IC20 and CI < 0.6 to IC50)”. The “Potentiating activity PC-3” value [10] was “(4) (Weak: 0.8 < CI < 1 to IC50)”.
